In US20230015823A1, “METHODS OF ADMINISTERING VOXELOTOR” (Global Blood Therapeutics, Inc., priority 2019, published 2023):
Entries after “also recorded” stand apart in the source; their conditions may differ.

Columns and labels:
CYP3A4 [1] = molecular target: T1, CYP3A4 (Homo sapiens, UniProt P08684); assay: Effect of voxelotor on PK of CYP3A4 probe substrate midazolam in healthy subjects; conditions: human, in vivo
Method: During Period 1, subjects received a single dose of caffeine 100 mg, warfarin sodium 10 mg+vitamin K 10 mg, omeprazole 20 mg, and midazolam hydrochloride 2 mg on Day 1. During Period 2, subjects received voxelotor 900 mg QD on Days 1 and 2 followed by 600 mg QD on Day 3, a single dose of caffeine 100 mg, warfarin sodium 10 mg+vitamin K 10 mg, omeprazole 20 mg, and midazolam hydrochloride 2 mg on Day 4, and voxelotor 600 mg QD on Days 4 through 7.
Whole blood and plasma concentrations of voxelotor and plasma concentrations of caffeine, paraxanthine, S-warfarin, omeprazole, 5-hydroxyomeprazole, midazolam, and 1-hydroxymidazolam were determined using validated assays.

[2] = Clinical trials experience (HOPE trial): safety of OXBRYTA; format: in vivo, human
Method: The safety of OXBRYTA was evaluated in the HOPE trial based upon 88 patients who received OXBRYTA 1,500 mg and 91 patients who received placebo orally once daily [see Clinical Studies (14)]. Seventy-four patients received OXBRYTA 1,500 mg once daily for ≥24 weeks and 65 patients for ≥48 weeks.
In patients who received OXBRYTA 1,500 mg once daily the median age was 24 years (range: 12-59); 65% female; 66% Black or African American and 23% Arab/Middle Eastern; and 65% receiving hydroxyurea at baseline.

pregnant rats = assay: Embryo-fetal development study in pregnant rats; format: in vivo, rat
Method: In embryo-fetal development studies, voxelotor was administered orally to pregnant rats at 15, 50, and 250 mg/kg/day (gestation days 7 through 17) and rabbits at 25, 75, and 150 mg/kg/day (gestation days 7 through 19) through organogenesis.

QT interval = assay: Cardiac electrophysiology; format: in vivo; conditions: plasma concentrations approximately 2-fold above therapeutic concentrations
Protein binding in vitro = format: in vitro ADME
Description: Voxelotor apparent volume of distribution of the central compartment and peripheral compartment are 338 L and 72.2 L in plasma, respectively. Protein binding is 99.8% in vitro. The blood-to-plasma ratio is approximately 15:1 in patients with SCD.

CYP3A4 [3] = molecular target: T1, CYP3A4; assay: Metabolism (in vitro and in vivo studies); format: in vitro ADME; conditions: minor contribution from CYP2C19, CYP2B6 and CYP2C9
Description: In vitro and in vivo studies indicate that voxelotor is extensively metabolized through Phase I (oxidation and reduction), Phase II (glucuronidation) and combinations of Phase I and II metabolism.

MATE2-K = MATE2-K (Homo sapiens, UniProt Q86VL8); assay: In vitro transporter studies: MATE2-K; format: in vitro ADME
BSEP = BSEP (Homo sapiens, UniProt O95342); assay: In vitro transporter studies: BSEP; format: in vitro ADME
OATP1A2 = OATP1A2 (Homo sapiens, UniProt P46721); assay: In vitro transporter studies: OATP1A2; format: in vitro ADME
Sequence of OATP1A2 (P46721 whole entry): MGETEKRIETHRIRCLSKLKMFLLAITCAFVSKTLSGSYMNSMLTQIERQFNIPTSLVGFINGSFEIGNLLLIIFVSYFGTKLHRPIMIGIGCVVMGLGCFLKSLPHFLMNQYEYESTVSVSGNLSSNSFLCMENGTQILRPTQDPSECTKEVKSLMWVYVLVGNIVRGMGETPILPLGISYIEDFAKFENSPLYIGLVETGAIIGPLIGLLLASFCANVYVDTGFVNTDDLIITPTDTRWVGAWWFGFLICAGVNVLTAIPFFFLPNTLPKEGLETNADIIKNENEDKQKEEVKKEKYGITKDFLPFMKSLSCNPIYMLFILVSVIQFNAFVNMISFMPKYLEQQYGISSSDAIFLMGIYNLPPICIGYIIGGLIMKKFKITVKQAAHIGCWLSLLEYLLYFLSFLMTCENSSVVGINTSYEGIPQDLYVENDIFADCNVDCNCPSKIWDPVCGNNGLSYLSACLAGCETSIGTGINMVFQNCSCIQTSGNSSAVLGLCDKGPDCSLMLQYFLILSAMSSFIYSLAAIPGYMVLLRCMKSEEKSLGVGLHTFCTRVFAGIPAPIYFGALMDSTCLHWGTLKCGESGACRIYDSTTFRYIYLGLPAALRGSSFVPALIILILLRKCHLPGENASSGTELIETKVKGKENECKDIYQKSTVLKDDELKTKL

Sequence of BSEP (O95342 whole entry): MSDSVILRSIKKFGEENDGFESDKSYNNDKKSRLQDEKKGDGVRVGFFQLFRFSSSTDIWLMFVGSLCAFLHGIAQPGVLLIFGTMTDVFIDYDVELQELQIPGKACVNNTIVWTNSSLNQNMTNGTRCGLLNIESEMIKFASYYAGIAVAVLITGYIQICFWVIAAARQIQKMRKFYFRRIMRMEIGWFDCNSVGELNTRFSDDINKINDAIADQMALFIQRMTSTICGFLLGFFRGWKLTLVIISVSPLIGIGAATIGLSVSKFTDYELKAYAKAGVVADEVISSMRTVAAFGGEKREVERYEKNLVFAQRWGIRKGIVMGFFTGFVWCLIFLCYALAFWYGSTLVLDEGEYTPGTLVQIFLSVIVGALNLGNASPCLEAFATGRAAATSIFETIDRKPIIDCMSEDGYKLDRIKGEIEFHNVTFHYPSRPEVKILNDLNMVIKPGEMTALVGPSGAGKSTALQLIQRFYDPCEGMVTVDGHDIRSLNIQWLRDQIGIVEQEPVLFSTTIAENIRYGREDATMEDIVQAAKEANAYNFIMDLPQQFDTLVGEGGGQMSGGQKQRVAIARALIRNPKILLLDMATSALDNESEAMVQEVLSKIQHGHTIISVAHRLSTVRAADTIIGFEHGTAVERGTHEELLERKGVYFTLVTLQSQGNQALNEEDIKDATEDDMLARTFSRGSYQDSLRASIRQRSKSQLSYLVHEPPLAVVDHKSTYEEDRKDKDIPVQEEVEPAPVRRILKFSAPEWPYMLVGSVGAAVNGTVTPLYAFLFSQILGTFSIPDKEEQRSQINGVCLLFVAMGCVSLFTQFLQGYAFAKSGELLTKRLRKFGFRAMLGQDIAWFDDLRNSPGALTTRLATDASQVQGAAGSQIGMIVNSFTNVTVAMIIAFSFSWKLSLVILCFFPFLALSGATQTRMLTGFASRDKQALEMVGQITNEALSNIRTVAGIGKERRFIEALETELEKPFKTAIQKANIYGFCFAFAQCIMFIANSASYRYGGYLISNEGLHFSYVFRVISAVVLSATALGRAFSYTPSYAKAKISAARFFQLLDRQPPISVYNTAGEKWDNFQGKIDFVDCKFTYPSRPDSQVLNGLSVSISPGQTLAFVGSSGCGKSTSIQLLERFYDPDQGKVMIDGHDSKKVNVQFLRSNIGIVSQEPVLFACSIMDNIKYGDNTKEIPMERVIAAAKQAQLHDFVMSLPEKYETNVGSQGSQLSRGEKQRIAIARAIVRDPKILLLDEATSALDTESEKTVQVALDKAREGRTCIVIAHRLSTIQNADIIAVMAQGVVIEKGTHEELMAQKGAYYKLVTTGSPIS
T1 sequence (P08684 whole entry): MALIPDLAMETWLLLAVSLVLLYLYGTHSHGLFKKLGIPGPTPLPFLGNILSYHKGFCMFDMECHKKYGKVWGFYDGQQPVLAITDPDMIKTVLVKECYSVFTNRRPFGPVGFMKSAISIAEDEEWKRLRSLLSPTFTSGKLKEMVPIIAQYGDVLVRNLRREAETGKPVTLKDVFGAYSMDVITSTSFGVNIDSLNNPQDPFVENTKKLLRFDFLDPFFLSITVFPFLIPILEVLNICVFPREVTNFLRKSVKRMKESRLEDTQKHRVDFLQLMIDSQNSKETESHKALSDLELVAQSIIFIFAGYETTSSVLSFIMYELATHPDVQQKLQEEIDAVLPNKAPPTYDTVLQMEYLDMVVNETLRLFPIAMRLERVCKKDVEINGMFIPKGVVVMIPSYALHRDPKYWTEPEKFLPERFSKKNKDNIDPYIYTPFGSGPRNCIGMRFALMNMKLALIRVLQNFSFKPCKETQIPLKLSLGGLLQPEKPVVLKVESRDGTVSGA
Sequence of MATE2-K (Q86VL8 1-566 isoform Q86VL8-3): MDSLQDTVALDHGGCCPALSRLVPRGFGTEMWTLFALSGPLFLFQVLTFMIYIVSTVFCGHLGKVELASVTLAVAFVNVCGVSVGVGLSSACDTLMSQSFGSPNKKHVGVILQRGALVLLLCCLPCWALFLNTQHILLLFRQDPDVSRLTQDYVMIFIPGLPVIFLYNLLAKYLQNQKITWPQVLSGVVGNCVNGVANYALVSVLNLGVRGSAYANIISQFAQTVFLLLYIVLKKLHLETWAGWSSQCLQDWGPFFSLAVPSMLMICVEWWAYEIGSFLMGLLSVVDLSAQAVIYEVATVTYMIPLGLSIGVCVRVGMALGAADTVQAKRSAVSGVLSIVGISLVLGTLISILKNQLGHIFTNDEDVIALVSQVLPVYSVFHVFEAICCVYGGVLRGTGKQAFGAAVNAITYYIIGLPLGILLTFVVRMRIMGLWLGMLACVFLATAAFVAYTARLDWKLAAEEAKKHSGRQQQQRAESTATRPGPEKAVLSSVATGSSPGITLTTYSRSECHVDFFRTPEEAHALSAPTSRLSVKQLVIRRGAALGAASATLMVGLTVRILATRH

CC(C)n1nccc1-c1ncccc1COc1cccc(O)c1C=O [voxelotor, 2-hydroxy-6-((2-(1-isopropyl-1H-pyrazol-5-yl)pyridin-3-yl)methoxy)benzaldehyde]
inhibition of CYP3A4 in vivo (CYP3A4 [1]): inhibits | Adverse reaction: Abdominal Pain (grouped PTs) ([2]; HOPE, 1,500 mg (N = 88)): 17 (19%) n (%) | Adverse reaction: Diarrhea ([2]; HOPE, 1,500 mg (N = 88)): 18 (20%) n (%) | Adverse reaction: Fatigue ([2]; HOPE, 1,500 mg (N = 88)): 12 (14%) n (%) | Adverse reaction: Headache ([2]; HOPE, 1,500 mg (N = 88)): 23 (26%) n (%) | Adverse reaction: Nausea ([2]; HOPE, 1,500 mg (N = 88)): 15 (17%) n (%) | Adverse reaction: Pyrexia ([2]; HOPE, 1,500 mg (N = 88)): 11 (12%) n (%) | Adverse reaction: Rash (grouped PTs) ([2]; HOPE, 1,500 mg (N = 88)): 12 (14%) n (%) | patients with serious adverse reactions ([2]; HOPE, 1,500 mg once daily, 3/88): 3% | permanent discontinuation due to an adverse reaction (Grades 1-4) ([2]; HOPE, 1,500 mg once daily, 4/88): 5% | dosage modifications (dose reduction or dosing interruption) due to an adverse reaction ([2]; HOPE, 36/88): 41% | patients with serious hypersensitivity reactions ([2]; patients treated): < 1% | adverse developmental outcomes (pregnant rats; pregnant rats, oral 15, 50, 250 mg/kg/day, gestation days 7 through 17): no adverse developmental effects; also recorded: no evidence of adverse developmental outcomes | exposure at highest dose level (maternal toxicity observed) relative to exposure in patients at the recommended daily dose (pregnant rats; rats, 250 mg/kg/day): 2.8 times | QT interval prolongation (QT interval): does not prolong QT interval to any clinically relevant extent | fraction unbound (Protein binding in vitro): 0.002 | enzymes mediating oxidation of voxelotor (CYP3A4 [3]): mediated primarily by CYP3A4 | inhibition of MATE2-K (MATE2-K): not an inhibitor | inhibition of BSEP (BSEP): not an inhibitor | substrate of BSEP (BSEP): not a substrate | substrate of OATP1A2 (OATP1A2): not a substrate
